The values that follow come from patent publication US20130273557A1 (priority 2010, published 2013).

Entries after “also recorded” stand apart in the source; their conditions may differ. Where only a bound is given, the exact number is not on record here.

Series [1] relates to models of cell death and NDDs. Particulars: compared with pramipexole; cited from earlier work.
Series [2] deals with leak conductance of urea-treated SMVs. The series is described as follows: Patch clamp recordings of urea-treated SMVs (F1 removed). Type of series: biochemical, rat. How it is done: F1 subunits were removed from SMVs by adapting previously-established methods. 60 mg SMV's/1 mL IB was treated with 1 mL of […] for 5 min. on ice, then centrifuged at 21000×g for 10 min. The pellet was washed 3× in IB (centrifugation at 21000×g for 10 min) and stored in IB.
(§1) Giga-ohm seals were formed on SMVs using pipettes and solutions as above. Peak membrane conductance was measured as described above.

In series [3] the target is leak conductance of SMVs enriched in F1FO ATP synthase (complex V) (Rattus norvegicus, UniProt P19511+Q06647). The series is described as follows: biochemical. How it is done: Reagents were rapidly perfused into the recording chamber.
as §1

The subject of series [4] is SH-SY5Y neuroblastoma cells. Briefly: PSI-induced cell death in SH-SY5Y cells (CellTiter-Blue). How it is done: Data shown represent mean±SEM. […] Bar graphs represent normalized mean±SEM. Cell viability was measured by CellTiter-Blue®; n=41-98 wells/condition.
(§2) Undifferentiated SH-SY5Y human neuroblastoma cells (ATCC, Manasses, Va.) were maintained in humidified 5% CO2 in 1:1 Ham's F12 nutrient mixture with Glutamax® and Minimal Essential Medium with L-glutamine (MEM-Alpha), 10% FBS, and 1% penicillin/streptomycin (Gibco® Invitrogen Corp., Carlsbad, Calif.).
(§3) Cellular viability was measured using CellTiter-Blue® (Promega Corp., Madison, Wis.) in black-walled optical imaging multiwell plates, and cellular ATP was measured using the CellTiter-Glo® (Promega Corp., Madison, Wis.) luminescence assay in opaque-walled multiwell plates according to the manufacturer's protocol.
(Resazurin is reduced to fluorescent resorufin, in cell work by metabolically active cells.)

Series [5] relates to Ca^2+-induced ion conductance in mitochondria. Particulars: 2 or 20 μM, in 100 μM Ca^2+.
Method: Patch-clamp recordings were made from de-energized mitochondria in intracellular solution (120 mM potassium chloride, 8 mM NaCl, 0.5 mM EGTA, 10 mM HEPES, pH adjusted to 7.3) at room temperature (22-25° C.). Pipettes (80-100M0) were filled with the same solution; recordings were made using a Heka 8 amplifier with Vm held at positive voltages up to +180 mV. Data were recorded at 20 kHz and filtered at 500-1000 Hz. […] Reagents were rapidly perfused into the recording chamber. Peak membrane conductance was measured as the peak amount of current (pA) from zero, converted to pS by assuming a linear I-V relationship. Discrete channel conductances were sorted by activity (% occurrence of a conductance level per unit time measured using pCLAMP 10 software, Molecular Devices, Sunnyvale, Calif.); levels defined as closed (no current), small (<200 pS), intermediate (>200 pS and <750 pS) and large (>750 pS). Mean open time (NPo; open time of discrete single channels times the apparent number of single channels in the patch) was used to assess drug effect
For series [6], the system named is digitonin-permeabilized cultured cortical neurons. How it is done:
Primary rat cortical cultures were incubated with digitonin (10 μg/ml) and rotenone (100 nM) for 45 minutes in MAS1 buffer prior to measurement of oxygen consumption rate (OCR) by a Seahorse® flux analyzer. […] Data are shown as a percentage of the control group OCR±SEM.
Primary cultures of cortical neurons were prepared as described previously, plated at 8×10^5 cells/well for Seahorse XF24 experiments and grown in Neurobasal A supplemented with B27, 1 mM glutamine and penicillin/streptomycin for […] in vitro (DIV). On DIV 7, media without antibiotics was substituted. The cultures were used on DIV 9-10.
(§4) OCR and ECAR were measured with a Seahorse® XF24 Flux Analyzer (Seahorse Bioscience, Billerica, Mass.). For PSI experiments on C2C12 cells, basal values were assessed in non-buffered DMEM Assay Medium without glucose, glutamine or pyruvate, and supplemented with 25 mM glucose, 6 mM Glutamax®, and 1 mM sodium pyruvate. […] Succinate and ADP stocks were diluted to 10× concentrations in pre-warmed XF MAS buffer, pH 7.2. Using a Plate Prep Station (Seahorse Bioscience, Billerica, Mass.), cells were washed with 1 mL buffer and were brought to 607 μL with buffer. […] Raw basal OCR and ECAR values were normalized as a percent of the mean control value for each individual experiment. Normalized data from experiments were expressed as mean±SEM.

Series [7] has as its system SH-SY5Y neuroblastoma cells. The following applies: 30 μM. How it is done:
as §2, §4

Another series addresses complex V (F1FO ATPase) (Rattus norvegicus, UniProt P19511+Q06647). The series is described as follows: ATP hydrolysis in SMVs, luciferin-luciferase assay. It counts as biochemical. Further details: from tissue; host or cells: rat brain mitochondria, lubrol-insoluble submitochondrial vesicles (SMVs). From the text:
3 wells were used for each condition, repeated at least 3× on different SMV isolations.

For series [8], the system named is C2C12 cells. Particulars: mouse, 18 h, 30 µM. How it is done: (§5) Data are presented as a percentage of the vehicle-treated control ±SEM (n=10 wells at each concentration). […] Experiments commenced 18 hr. after addition of drug. […] Data are presented as a percentage of the vehicle-treated control±SEM (n=14-17 wells for each group).
(§6) The C2C12 mouse myoblast cell line (ATCC, Manasses, Va.) was cultured in Dulbecco's Modified Eagle Medium (DMEM; Gibco®; Carlsbad, Calif.) supplemented with 10% fetal bovine serum (FBS), 2 mM GlutaMax® and penicillin/streptomycin. Cells were maintained in 10% CO2 humidified at 37° C.
as §3

Series [9] deals with human F1FO ATP synthase b subunit (Homo sapiens, UniProt P24539). The following applies: co-incubation in 'cold' dexpramipexole (100 μM).
From the text: The human ORF constructs for alpha, beta, b, c, delta, d, epsilon, gamma and OSCP ATP synthase subunits, tagged with Myc and DDK (Flag) tags were from Origene Technologies (Rockville, Md.). 293T cells were transfected with the above constructs, using the calcium phosphate method (Li et al. 2008). On day-3 post transfection, the cells were lysed and the fusion proteins were bound to the EZview™ Red ANTI-FLAG® M2 Affinity Gel (Sigma, USA), according to the manufacturer's protocol. The proteins were eluted from a portion of the samples and presence of the proteins on the beads was verified by immunoblot analysis, using the mouse anti-Myc antibodyies (Cell signaling Technology). […] They were spun at 3000×g in 0.45 um Spin-X centrifugal devices (Corning Life Sciences, USA) for 10 min. The samples were washed three times with PBS and the filter units were incubated in Ultima Gold scintillation liquid (Perkin Elmer Health Sciences, Inc.) overnight. Samples were counted for ^14C, using a Beckman Coulter LS 5000TD scintillation counter.
The subject of series [10] is single cultured hippocampal neurons. The following applies: acute application of 10 μM, after 1-5 min. How it is done:
Oxygen uptake was measured in single hippocampal neurons in culture (DIV 14-17). A […] (tip diameter) oxygen-sensing electrode oscillated 10 μm close-to and away-from the cell every 3 sec. The difference in current detected at the two positions was translated into oxygen flux.

The subject of series [11] is C2C12 cells. It counts as cell-based, mouse. The following applies: dexpramipexole 30 μM or PSI 30 nM, 18 hr, relative to control. How it is done:
as §5, §6, §3

Series [12] relates to cultured hippocampal neurons. Particulars: 10 μM, 12 hr pre-treatment. How it is done: Cultured hippocampal neurons were prepared and plated on 96 well plates. […] Cellular viability was measured using CellTiter-Blue® (Promega Corp., Madison, Wis.) in black-walled optical imaging multiwell plates, and cellular ATP was measured using the CellTiter-Glo® (Promega Corp., Madison, Wis.) luminescence assay in opaque-walled multiwell plates according to the manufacturer's protocol.

For series [13] the following is noted: doses that should produce pharmacodynamically effective CNS concentrations; cited from earlier work.
[14] abbreviates: 30 μM applied 1 hr prior to recording.

Sequence of human F1FO ATP synthase b subunit (P24539 43-256): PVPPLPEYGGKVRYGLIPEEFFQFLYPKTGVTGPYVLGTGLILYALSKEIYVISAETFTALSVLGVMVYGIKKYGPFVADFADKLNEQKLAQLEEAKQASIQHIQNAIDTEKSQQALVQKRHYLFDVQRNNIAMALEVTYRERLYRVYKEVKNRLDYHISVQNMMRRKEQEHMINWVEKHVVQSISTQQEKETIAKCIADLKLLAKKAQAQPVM

The term EC50 denotes the concentration that produces a half-maximal response. Read a high EC50 as weaker potency. As for `CCCN[C@@H]1CCc2nc(N)sc2C1` [dexpramipexole, (6R)-4,5,6,7-tetrahydro-N-6-propyl-2,6-benzothiazole-diamine], the protection result in [1] was “equally protective”. In series [2], the “leak conductance after removal of F1” value was “no longer inhibited the conductance”. In [3], this molecule returned a 50% effective concentration (EC50) of 0.111 µM. Besides, the “currents in SMVs” value in series [3] (high [Ca^2+], 2 μM dexpramipexole, 1.0 μM CSA) was “inhibited”. In addition, the cytoprotective concentrations in series [4] is ≥ 10 µM. Moreover, the “protection against PSI-induced cell death” value in [4] (pretreatment with dexpramipexole) is listed as “protective; also recorded: inhibited PSI-induced cell death in a concentration-dependent manner”. For the same molecule, in [5], the mitochondrial membrane currents entry is given as “effectively decreased”. Moreover, in series [6] (setting [14]), the “OCR during succinate incubation” value is “lower OCR” and the “OCR following an ADP pulse” value is reported as “significantly lower OCR”. Also, the “increase in OCR produced by succinate and following the ADP pulse” value in [6] (acute application 30 μM) was “less than in control cells”. For the same molecule, the basal respiration result in series [6] (acute application 30 μM, rotenone) is “did not affect”. Further, in [7], the “basal oxygen consumption rate (OCR)” value is given as “modestly decreased”. Moreover, the EC50 on complex V (F1FO ATPase) was determined as 1.63 µM. Besides, the cell viability result in the series with C2C12 cells [8] was “neither ATP levels nor cell viability (FIG. 5b) were significantly affected”. Besides, in series [9], the “competition of ^14C-dexpramipexole binding to b subunit” value was “significantly reduced binding”. Besides, in series [10], the “decrease in average oxygen flux” value is on record as ~16%. Further, the ATP levels entry with C2C12 cells [11] was “neither ATP levels nor cell viability (FIG. 5b) were significantly affected”. Besides, the “increase in ATP levels compared to vehicle-treated cultures” value in series [12] was found to be 11%. Moreover, in series [13], the safety and tolerability entry was “safe and well-tolerated”.
